Reference: PubChem BioAssay (NCI)
“And” between values parts separate entries of the source, which are not always exact repeats. Equal values may be shown once.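 1) Cells in 96-well plates. 2) Compound, 48 h, 5 concentrations. 3) Linear interpolation between surrounding doses. 4) Unreached endpoint = highest concentration. GI50: concentration for 50% inhibition of growth. The concentration for full growth arrest is given as TGI.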

How the values were obtained:
Test in all cases: NCI-60 cell line screen, 48 h
[1] = system: SK-MEL-2 melanoma
[2] = system: OVCAR-5 ovarian
[3] = system: LOX IMVI melanoma
[4] = system: MDA-MB-231 breast
[5] = system: NCI-H460 lung
[6] = system: CAKI-1 renal
[7] = system: 786-0 renal
[8] = system: HOP-62 NSCLC
[9] = system: NCI-H23 lung
[10] = system: CCRF-CEM leukemia
[11] = system: RXF 393 renal
[12] = system: HCT-15 colon
[13] = system: PC-3 prostate
[14] = system: NCI-H522 lung
[15] = system: UO-31 renal
[16] = system: T-47D breast
[17] = system: SK-MEL-5 melanoma
[18] = system: A498 renal
[19] = system: KM12 colon
[20] = system: SN12C renal
[21] = system: SF-268 CNS
[22] = system: MDA-MB-435
[23] = system: DU-145 prostate
[24] = system: MDA-N
[25] = system: NCI/ADR-RES ovarian
[26] = system: MALME-3M melanoma
[27] = system: SNB-19 CNS
[28] = system: M14 melanoma
[29] = system: HOP-92 NSCLC
[30] = system: UACC-62 melanoma
[31] = system: A549 NSCLC
[32] = system: HT29 colon
[33] = system: OVCAR-8 ovarian
[34] = system: MOLT-4 leukemia
[35] = system: UACC-257 melanoma
[36] = system: K-562 leukemia
[37] = system: HS 578T breast
[38] = system: OVCAR-3 ovarian
[39] = system: RPMI-8226 leukemia
[40] = system: BT-549 breast
[41] = system: SK-OV-3 ovarian
[42] = system: U251 CNS
[43] = system: EKVX NSCLC
[44] = system: HCC-2998 colon
[45] = system: IGROV1 ovarian
[46] = system: SK-MEL-28 melanoma
[47] = system: SF-295 CNS
[48] = system: SW-620 colon
[49] = system: MCF7 breast
[50] = system: SNB-75 CNS
[51] = system: COLO 205 colon
[52] = system: OVCAR-4 ovarian
[53] = system: TK-10 renal
[54] = system: HCT-116 colon
[55] = system: HL-60(TB) leukemia
[56] = system: SF-539 CNS
[57] = system: SR leukemia
[58] = system: NCI-H226 lung
[59] = system: ACHN renal

Cc1ccc(S(=O)(=O)Oc2coc(CO)cc2=O)cc1
TGI [1]: 57.6 µM
TGI [2]: 31.8 µM
TGI [3]: 14.9 µM
TGI [4]: 41.7 µM
TGI [5]: 31.1 µM
TGI [6]: 10.4 µM
TGI [7]: 23.4 µM
TGI [8]: 34 µM
TGI [9]: 35.3 µM
TGI [10]: 10.7 µM
TGI [11]: 30 µM
TGI [12]: > 49.5 µM
TGI [13]: 38.2 µM
TGI [14]: 3.71 µM
TGI [15]: 27.3 µM
TGI [16]: 30 µM
TGI [17]: 33.7 µM
TGI [18]: 30.2 µM
TGI [19]: 18.7 µM
TGI [20]: 25.3 µM
TGI [21]: 44.8 µM
TGI [22]: 30.7 µM
TGI [23]: 27.1 µM
TGI [24]: 25.8 µM
TGI [25]: > 69.5 µM
TGI [26]: 44.5 µM
TGI [27]: 27.8 µM
TGI [28]: 25.9 µM
TGI [29]: 39.6 µM
TGI [30]: 25.3 µM
TGI [31]: 28.1 µM
TGI [32]: 30.4 µM
TGI [33]: > 50 µM
TGI [34]: > 88.5 µM
TGI [35]: 43.4 µM
TGI [36]: > 100 µM
TGI [37]: > 72.7 µM
TGI [38]: 31.9 µM
TGI [39]: 36.5 µM
TGI [40]: 39.2 µM
TGI [41]: 37.7 µM
TGI [42]: 23.7 µM
TGI [43]: 30.1 µM
TGI [44]: 27 µM
TGI [45]: 34.5 µM
TGI [46]: 36.6 µM
TGI [47]: 31.3 µM
TGI [48]: 42 µM
TGI [49]: 22.1 µM
TGI [50]: 33.3 µM
TGI [51]: 28.6 µM
TGI [52]: 32.3 µM
TGI [53]: 44.2 µM
TGI [54]: 15 µM
TGI [55]: 12.5 µM
TGI [56]: 87.8 µM
TGI [57]: > 85.5 µM
TGI [58]: > 100 µM
TGI [59]: 38.2 µM

CCC(C)C(NC(=O)C(CCCCN)NC(=O)C(NC(=O)C(CCC(N)=O)NC(=O)C(CCCNC(=N)N)NC(C)=O)C(C)CC)C(=O)NC(Cc1c[nH]c2ccccc12)C(=O)NC(Cc1ccccc1)C(=O)NC(CCC(N)=O)C(=O)NC(CC(N)=O)C(=O)NC(CCCNC(=N)N)C(=O)NC(CCCNC(=N)N)C(=O)NC(CCSC)C(=O)NC(CCCCN)C(=O)NC(Cc1c[nH]c2ccccc12)C(=O)NC(CCCCN)C(=O)NC(CCCCN)C(N)=O (configuration not stated)
TGI [1]: > 50 µM
TGI [2]: 22.5 µM
TGI [3]: > 50 µM
TGI [4]: 41.3 µM
TGI [5]: > 50 µM
TGI [6]: > 50 µM
TGI [7]: 42.1 µM
TGI [8]: > 50 µM
TGI [9]: > 50 µM
TGI [10]: > 50 µM
TGI [11]: > 50 µM
TGI [12]: > 50 µM
TGI [13]: > 50 µM
TGI [14]: > 50 µM
TGI [16]: > 50 µM
TGI [17]: > 50 µM
TGI [18]: > 50 µM
TGI [19]: > 50 µM
TGI [20]: > 50 µM
TGI [21]: > 50 µM
TGI [22]: > 50 µM
TGI [23]: > 50 µM
TGI [24]: > 50 µM
TGI [25]: > 50 µM
TGI [26]: > 50 µM
TGI [27]: > 50 µM
TGI [28]: > 50 µM
TGI [29]: > 50 µM
TGI [30]: > 50 µM
TGI [31]: > 50 µM
TGI [32]: > 50 µM
TGI [33]: > 50 µM
TGI [34]: > 50 µM
TGI [35]: > 50 µM
TGI [36]: > 50 µM
TGI [37]: > 50 µM
TGI [38]: > 50 µM
TGI [39]: > 50 µM
TGI [40]: > 50 µM
TGI [41]: > 50 µM
TGI [42]: > 50 µM
TGI [43]: > 50 µM
TGI [44]: > 50 µM
TGI [45]: > 50 µM
TGI [46]: > 50 µM
TGI [47]: > 50 µM
TGI [48]: > 50 µM
TGI [49]: > 50 µM
TGI [51]: > 50 µM
TGI [52]: > 50 µM
TGI [53]: > 50 µM
TGI [54]: > 50 µM
TGI [55]: > 50 µM
TGI [56]: > 50 µM
TGI [57]: > 50 µM
TGI [59]: > 50 µM

Cc1cc(-c2cc(C)c(O)c(C(C)(C)C)c2)cc(C(C)(C)C)c1O
TGI [1]: 19.4 µM and 25.8 µM
TGI [2]: 24.4 µM and 28.4 µM
TGI [3]: 29.4 µM and 23.6 µM
TGI [4]: 21.4 µM and 26.2 µM
TGI [5]: 19.4 µM and 17.8 µM
TGI [6]: 22.7 µM and 27.7 µM
TGI [7]: 22.6 µM and 25.7 µM
TGI [8]: 34.5 µM and 31 µM
TGI [9]: 26.2 µM and 24.7 µM
TGI [10]: 22.4 µM and 39.1 µM
TGI [11]: 25.5 µM and 26.1 µM
GI50 [12]: 5.13 µM and 10.8 µM
TGI [12]: 18.1 µM and 23.5 µM
GI50 [13]: 6.09 µM and 13.7 µM
TGI [13]: 19.2 µM and 26.5 µM
TGI [14]: 22.5 µM and 28.2 µM
TGI [15]: 23 µM and 32 µM
TGI [16]: 20.1 µM and 20.7 µM
TGI [17]: 22.3 µM and 28.2 µM
TGI [18]: 21.3 µM and 32.7 µM
TGI [19]: 20.8 µM and 21.3 µM
TGI [20]: 24.8 µM and 26.2 µM
TGI [21]: 23.9 µM and 29 µM
TGI [22]: 26.4 µM and 28 µM
TGI [23]: 25.7 µM and 28.5 µM
TGI [24]: 21.2 µM and 27.9 µM
TGI [25]: 23.5 µM and 28.2 µM
TGI [26]: 28.3 µM and 41.1 µM
TGI [27]: 27.7 µM and 26.7 µM
TGI [28]: 22.4 µM and 25.4 µM
GI50 [29]: 15.1 µM and 4.92 µM
TGI [29]: 29.8 µM and 17.5 µM
TGI [30]: 26.1 µM and 26.8 µM
TGI [31]: 21.4 µM and 21.3 µM
TGI [32]: 12.7 µM and 16.4 µM
TGI [33]: 31.5 µM and 26.1 µM
TGI [34]: 19.4 µM and 21.5 µM
TGI [35]: 24.1 µM and 24.7 µM
TGI [36]: 25.4 µM and 37.5 µM
TGI [37]: 27.1 µM and 32.7 µM
TGI [38]: 28.4 µM and 27 µM
TGI [39]: 45.9 µM and 50.4 µM
TGI [40]: 27.6 µM and 26.5 µM
TGI [41]: 29.2 µM and 30.4 µM
TGI [42]: 22.4 µM and 26.4 µM
TGI [43]: 22.7 µM and 28.4 µM
TGI [44]: 15.4 µM and 18.7 µM
TGI [45]: 41.6 µM and 24.3 µM
TGI [46]: 24.5 µM and 34.2 µM
TGI [47]: 23.1 µM and 23.2 µM
TGI [48]: 25.1 µM and 70 µM
TGI [49]: 16.7 µM and 19.4 µM
TGI [50]: 25.4 µM and 27 µM
TGI [51]: 23.1 µM and 28.9 µM
TGI [52]: 27.6 µM and 23.8 µM
TGI [53]: 24.5 µM and 23.2 µM
TGI [54]: 19.5 µM and 22.8 µM
TGI [55]: 26.7 µM and 32.7 µM
TGI [56]: 28.2 µM and 35.4 µM
TGI [57]: 18.1 µM
TGI [58]: 22.6 µM and 35.9 µM
TGI [59]: 22.4 µM and 29.1 µM
